{"source": "paper PMC8248988", "about": "“A signal capture and proofreading mechanism for the KDEL-receptor explains selectivity and dynamic range in ER retrieval” (eLife, 2021)", "system": "HeLa S3 cells", "assay": "ER secretion assay, xDEL ligand secretion (Western blot for mScarlet)", "type": "cell-based, human", "source_text": "Figure 1. ER retrieval signal abundance and affinity are not correlated. (a) Sequence logos for ER resident proteins with C-terminal KDEL retrieval signals and variants thereof calculated using frequency or protein abundance ([Itzhak et al., 2017]; [Itzhak et al., 2016]). (b) Combined cellular concentrations of ER resident proteins with canonical KDEL, RDEL, and HDEL retrieval sequences in HeLa cells and mouse brain. (c) Competition binding assays for [^3H]-TAEHDEL and unlabelled TAEKDEL, TAERDEL, and TAEHDEL to the KDEL receptor. IC50 values for the competing peptides were used to calculate the apparent KDwith the Cheng-Prusoff equation ([Cheng and Prusoff, 1973]). (d) Endogenous KDEL receptor redistribution was measured in COS-7 cells in the absence (-ligand) or presence of K/R/H/A/DDEL (mScarlet-xDEL^sec). TGN46 was used as a Golgi marker. Scale bar is 10 µm. (e) The mean difference for K/R/H/A/DDEL comparisons against the shared no ligand control are shown as Cummings estimation plots. The individual data points for the fraction of KDEL receptor fluorescence in the Golgi are plotted on the upper axes with sample sizes and p values. Figure 1—source data 1. Source data for the ligand-induced KDELR receptor retrieval assays in Figure 1e. Figure 1—figure supplement 1. Abundance of ER resident proteins and chaperones in human cells and mouse brain. (a) The mean concentration of ER resident chaperones with the indicated ER retrieval sequence variant is plotted in the bar graph ([Itzhak et al., 2017]; [Itzhak et al., 2016]). (b) Combined cellular concentrations of ER resident proteins with canonical KDEL, RDEL, and HDEL retrieval sequences in HeLa cells and mouse brain. (c) The mean concentration of KDELR1, KDELR2, and KDELR3 in HeLa cells and mouse brain is plotted in the bar graph ([Itzhak et al., 2017]; [Itzhak et al., 2016]). (d) Cells and media collected from HeLa S3 cells expressing the xDEL variants (mScarlet-xDEL^sec) indicated in the figure were Western blotted for resident ER chaperones and KDELR. (e) A bar graph of xDEL secretion showing mean ± SEM (n = 3). (f). Endogenous ER chaperone secretion was measured by western blotting after challenge with different retrieval signals, and plotted as a bar graph showing mean ± SEM (n = 3). Figure 1—figure supplement 1—source data 1. Source data for analysis of ER protein levels in Figure 1—figure supplement 1a and c. Figure 1—figure supplement 1—source data 2. […] (a) Distribution of human KDELR1 and (b) KDELR2 was measured in COS-7 cells in the absence (-ligand) or presence of K/R/H/A/DDEL retrieval signals (K/R/H/A/DDEL^sec). […] The fraction of KDEL receptor localised to the Golgi was measured before (no ligand) and after challenge with different retrieval signals as indicated. […]"}
{"substance": "ADEL [pcDNA3.1 hGHss-mScarlet-H. sapiens BiP639-654K651A (ADEL^SEC), secreted mScarlet fusion with human BiP C-terminus, ADEL signal]", "values": [{"measurement": "retention or secretion of the xDEL ligand (in words)", "setting": "HeLa S3 cells", "result": "mostly secreted"}, {"measurement": "xDEL secretion (mScarlet)", "setting": "mean, HeLa S3, 24 hr, cells and media Western blot densitometry", "result": 51.6}, {"measurement": "xDEL secretion (mScarlet)", "setting": "replicate 1", "result": 33.9}, {"measurement": "xDEL secretion (mScarlet)", "setting": "replicate 2", "result": 69.2}]}
